Experimental data published in patent US5616575A (priority 1995, dated 1997).
Entries after “also recorded” stand apart in the source; their conditions may differ.

Tests used:
[1] = mice; cited from earlier work
[2] = fighting mice; cited from earlier work
[3] = rodents; cited from earlier work
[4] = humans; cited from earlier work
kappa-1 receptor [5] = experiment: Preliminary screening, binding at the kappa-1 receptor; conditions: in words
Description: To assess the potential addiction-interrupting effects of the newly synthesized iboganoids, compounds 7a,b,c were tested for binding at the 5-HT transporter and the […] and kappa-2 opiate receptors, molecular targets known to modulate mesolimbic dopaminergic function.

5-HT transporter = biological target: T1, 5-HT transporter (Homo sapiens, UniProt P31645); experiment: Full competition experiments at the 5-HT transporter in human occipital cortex ([125I]RTI55); type: binding; conditions: for relative potency at the 5-HT transporter: comparison with ibogaine or noribogaine, in words; for IC50 / nH: human occipital cortex, mean ± S.D.; for IC50: 0.01 nM [125I]RTI55, 1 μM benztropine, 25° C., two determinations in triplicate; for nH: 0.01 nM [125I]RTI55
T1 construct: from tissue; host or cells: human occipital cortex membranes
Description: ^a Membranes isolated from human occipital cortex were incubated for
hr at 25° C., in the presence of 1 μM benztropine, with 0.01 nM
[^125 I]RTI55 and varying concentrations of the respective compounds.
Data analysis was performed with EBDA (DRUG). The data presented are the
mean ± S.D. of two independent determinations conducted in triplicate,
nonspecific binding was evaluated using 50 μm-cocaine. (See, J.K.
Staley et al., J. Neurochem., 62, 549 (1994)).

kappa-1 receptor [6] = biological target: T2, kappa-1 receptor (Homo sapiens, UniProt P41145); experiment: Competition binding at the kappa-1 receptor of human insular cortex ([3H]U693593); conditions: for IC50: IC50, human insular cortex; for IC50 / nH: mean ± S.D.; for relative potency at the kappa-1 receptor: comparison with ibogaine, in words; for nH: human insular cortex
T2 construct: from tissue; host or cells: human insular cortex membranes
Description: Data analysis was performed with EBDA (DRUG); NS = nonspecific
The data presented are the mean ± S.D. of two independent

[7] = In vivo evaluation, behavior of rats after injection; conditions: for tremorigenic effect relative to ibogaine: comparison in words with ibogaine at 40 mg/kg; for tremors: 7a 100 μmol/kg; for tremors / locomotor activity and ataxia / behavioral symptoms: 7b comparable dose; for locomotor activity and ataxia / behavioral symptoms: injection, 7a and 7c 100 μmol/kg, 7d 150 μmol/kg
Description: Onset of symptoms was evident within 2 minutes, and the effects were most severe by 5 min. Signs of recovery became evident by 40 min post-injection and the animals appeared fully recovered after 60 min. Mild tremors were observed between 3 and 8 min post-injection.

NMDA receptor = NMDA receptor binding in human caudate (FIG. 3A); conditions: comparison in words
Description: The affinity of compounds 7a-c for the NMDA receptor was measured in human brain tissue employing the methodology of P. Popik et al., Psychopharmacol., 114, 672 (1994).

[8] = dogs and rabbits; cited from earlier work
[9] = cats; cited from earlier work
[10] = humans; cited from earlier work; remark: listed apart in the source
[11] = other animals; cited from earlier work
[12] = test system: dopamine levels in the nucleus accumbens and striatum; conditions: nucleus accumbens and striatum (ibogaine: striatum); cited from earlier work
[13] = rats, 100 μmol/kg, post-injection

CN1CCc2c([nH]c3ccccc23)C(c2ccccc2)C1 (stereo not shown) [3-methyl-5-phenyl-1,2,3,4,5,6-hexahydroazepino[4,5-b]indole]
antidepressant activity [1]: displayed antidepressant activity

c1ccc(C2CNCCc3c2[nH]c2ccccc32)cc1 (stereo not shown) [5-phenyl-1,2,3,4,5,6-hexahydroazepino[4,5-b]indole]
antidepressant activity [1]: displayed antidepressant activity

Cn1c2c(c3ccccc31)CCNCC2 [6-methyl-1,2,3,4,5,6-hexahydroazepino[4,5-b]indole]
aggressive behavior [2]: antagonize aggressive behavior in fighting mice | conditioned avoidance [3]: block conditioned avoidance | hypothermia and anorexigenic behavior [3]: induce hypothermia and anorexigenic behavior in rodents | neuroleptic activity [4]: did not exhibit neuroleptic activity in humans

CCN1CCc2c(sc3ccccc23)C(c2ccccc2)C1 (stereo not shown) [Compound 7a, 3-Ethyl-5-phenyl-1,2,3,4,5-pentahydroazepino[4,5-b]benzothiophene]
activity/affinity at the kappa-1 receptor (kappa-1 receptor [5]): some activity | relative potency at the 5-HT transporter (5-HT transporter): two- to threefold more potent than ibogaine | IC50 (5-HT transporter): 0.21 ± 0.01 µM | nH (5-HT transporter): 1.0 ± 0.1 | IC50 (kappa-1 receptor [6]; NS = 10 μM Naloxone): 17.2 ± 3.18 µM | IC50 (kappa-1 receptor [6]; NS, Computer-derived): 10.1 ± 2.01 µM | relative potency at the kappa-1 receptor (kappa-1 receptor [6]): essentially equipotent with ibogaine | nH (kappa-1 receptor [6]; NS = 10 μM Naloxone): 0.5 ± 0.0 | nH (kappa-1 receptor [6]; NS, Computer-derived): 1.3 ± 0.1 | tremorigenic effect relative to ibogaine [7]: much less tremorigenic than ibogaine | breathing ([7]; rats, 100 μmol/kg): Breathing appeared labored | onset of symptoms ([7]; rats, 100 μmol/kg): ≤ 2 min | tail posture ([7]; rats, 100 μmol/kg): the tail remained outstretched and limp | time at which effects were most severe ([7]; rats, 100 μmol/kg): ≤ 5 min | time at which signs of recovery became evident [7, 13]: ≤ 40 min | time to full recovery [7, 13]: 60 min | tremors ([7]; rats): Mild tremors | locomotor activity and ataxia / behavioral symptoms ([7]; rats): severe reduction in locomotor activity and ataxia

CCN1CCc2c(sc3ccccc23)C(c2cccc([N+](=O)[O-])c2)C1 (stereo not shown) [Compound 7b, 3-Ethyl-5-(3-nitrophenyl)-1,2,3,4,5-pentahydroazepino[4,5-b]benzothiophene]
activity/affinity at the kappa-1 receptor (kappa-1 receptor [5]): poor affinity | relative potency at the 5-HT transporter (5-HT transporter): two- to threefold more potent than ibogaine | IC50 (5-HT transporter): 0.26 ± 0.06 µM | nH (5-HT transporter): 1.0 ± 0.2 | tremorigenic effect relative to ibogaine [7]: much less tremorigenic than ibogaine | tremors ([7]; rats): no tremors were observed

CCN1CCc2c(sc3ccccc23)C(c2cccc(Br)c2)C1 (stereo not shown) [Compound 7c, 3-Ethyl-5-(3-bromophenyl)-1,2,3,4,5-pentahydroazepino[4,5-b]benzothiophene]
relative potency at the NMDA site (NMDA receptor): equipotent with ibogaine; also recorded: about fivefold more potent than 7a,b and noribogaine | activity/affinity at the kappa-1 receptor (kappa-1 receptor [5]): some activity | relative potency at the 5-HT transporter (5-HT transporter): essentially equipotent with the naturally occurring compound | IC50 (5-HT transporter): 0.82 ± 0.16 µM | nH (5-HT transporter): 1.2 ± 0.2 | IC50 (kappa-1 receptor [6]; NS = 10 μM Naloxone): 117 ± 14.5 µM | IC50 (kappa-1 receptor [6]; NS, Computer-derived): 49 ± 0.96 µM | relative potency at the kappa-1 receptor (kappa-1 receptor [6]): significantly less potent | nH (kappa-1 receptor [6]; NS = 10 μM Naloxone): 0.6 ± 0.1 | nH (kappa-1 receptor [6]; NS, Computer-derived): 0.9 ± 0.1 | locomotor activity and ataxia / behavioral symptoms ([7]; rats): No effects were observed

CC[C@H]1C[C@H]2C[C@H]3c4[nH]c5ccc(OC)cc5c4CCN(C2)[C@@H]13 [Ibogaine, ibogaine]
excitatory effects and local anesthetic activity [8]: unusual excitatory effects and local anesthetic activity | psychostimulant effects [9]: psychostimulant which caused phobia, ataxia and tremors in cats | craving / drug-free status [10]: some addicts reported alleviation or cessation of craving, and a few remained drug-free for several years thereafter; also recorded: effective in reducing craving in some humans while others were unaffected | number of doses required for comparable effects [11]: up to three doses | dopamine levels [12]: reduce dopamine levels in the striatum

CCC1CC2CC3c4[nH]c5ccc(O)cc5c4CCN(C2)C13 (stereo not shown) [Noribogaine, 12-hydroxyibogamine, reference compound]
nH (5-HT transporter): 0.78 ± 0.06 | IC50 (kappa-1 receptor [6]; 0.3 nM [3H]U693593, 1 hr, 25° C., NS definition not stated in line): 4.24 ± 0.28 µM | nH (kappa-1 receptor [6]; NS definition not stated in line): 1.1 ± 0.1

CC[C@H]1C[C@@H]2CN3CCc4c([nH]c5ccccc45)[C@](C(=O)OC)(C2)[C@H]13 [R-coronaridine]
dopamine levels [12]: reduced dopamine levels in the nucleus accumbens and striatum

COC(=O)[C@H]1[C@@H](OC(=O)c2ccccc2)C[C@@H]2CC[C@H]1N2C [cocaine, reference compound]
reversal of the reduction in locomotor activity induced by 7b ([7]; rats, cocaine 10 mg/kg ip, injected 10 min after 7b): reversed the reduction in locomotor activity induced by 7b

R-ibogamine [R-ibogaine]
dopamine levels [12]: reduced dopamine levels in the nucleus accumbens and striatum
